Assay: Probability model of serum T Cavg and Cmax distributions (titration dosing modeling)
Parameters: species or system hypogonadal men
Details: nominal model parameter, 200 mg T BID as TU, normal distribution
From the text: The fractions of the modeled patient population having their serum T Cavg and Cmax values falling within and/or outside of pre-specified limits and categories, as predicted from the probability model, were monitored and tabulated. The categories of interest were those identified by the FDA in its proposed guidelines for safe and effective hormone replacement therapy, as summarized in Table 2.
The probability model was based on the pharmacokinetic results obtained from the hypogonadal patient population that participated in the two multi-dose TU treatments in study LOT-A. As noted previously, 29 hypogonadal males participated in the study, 28 of them completed Treatment Period 1 (300 mg T, as TU, BID) and 24 of them completed Treatment Period 3 (200 mg T, as TU, BID).
Initially, the distribution of the calculated values of Cavg in the treated population was characterized by a mean and standard deviation assuming that the distribution fit either a normal distribution, or a log-normal distribution. […]
Second, a relationship was identified between serum T Cavg and Cmax using linear regression, such that given an hypothesized Cavg value, an expected value of Cmax could be determined (FIG. 5). […]
Fourth, the fraction of a treated population that fell within one of the 7 bins identified in Table 1 was calculated by: • 1. […]

CCCCCCCCCCC(=O)O[C@H]1CC[C@H]2[C@@H]3CCC4=CC(=O)CC[C@]4(C)[C@H]3CC[C@]12C [TU, testosterone undecanoate]
Mean Cavg (CV): 520 (39%)

Source: patent publication US20210220374A1, “METHODS OF TREATING TE[…]” (Clarus Therapeutics, Inc., priority 2013, published 2021)
